How the values were obtained:
Test in all cases: G-Flamp2 cAMP biosensor fluorescence in HeLa cells expressing the receptor
Format in all cases: cell-based
AmOctβ2 = target: T1, AmOctβ2 (Apis mellifera, UniProt A0A7M7GMY8)
T1 sequence (A0A7M7GMY8 1-438): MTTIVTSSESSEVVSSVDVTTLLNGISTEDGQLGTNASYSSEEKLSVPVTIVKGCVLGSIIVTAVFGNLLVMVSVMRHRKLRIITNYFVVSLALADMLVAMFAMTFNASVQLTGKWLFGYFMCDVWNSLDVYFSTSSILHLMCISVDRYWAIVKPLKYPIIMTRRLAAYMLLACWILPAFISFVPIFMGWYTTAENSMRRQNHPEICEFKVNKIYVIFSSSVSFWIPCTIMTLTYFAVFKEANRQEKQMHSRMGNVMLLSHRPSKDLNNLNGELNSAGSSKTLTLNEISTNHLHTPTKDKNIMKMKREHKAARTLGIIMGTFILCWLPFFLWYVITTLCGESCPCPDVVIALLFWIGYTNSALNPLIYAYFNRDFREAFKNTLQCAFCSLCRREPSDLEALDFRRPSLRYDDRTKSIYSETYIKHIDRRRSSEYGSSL

AgOctβ2R (AgOctβ2) [1] = target: T2, AgOctβ2R (AgOctβ2) (Anopheles gambiae, UniProt F5HKI1, N432C)
T2 sequence (F5HKI1 1-526 N432C): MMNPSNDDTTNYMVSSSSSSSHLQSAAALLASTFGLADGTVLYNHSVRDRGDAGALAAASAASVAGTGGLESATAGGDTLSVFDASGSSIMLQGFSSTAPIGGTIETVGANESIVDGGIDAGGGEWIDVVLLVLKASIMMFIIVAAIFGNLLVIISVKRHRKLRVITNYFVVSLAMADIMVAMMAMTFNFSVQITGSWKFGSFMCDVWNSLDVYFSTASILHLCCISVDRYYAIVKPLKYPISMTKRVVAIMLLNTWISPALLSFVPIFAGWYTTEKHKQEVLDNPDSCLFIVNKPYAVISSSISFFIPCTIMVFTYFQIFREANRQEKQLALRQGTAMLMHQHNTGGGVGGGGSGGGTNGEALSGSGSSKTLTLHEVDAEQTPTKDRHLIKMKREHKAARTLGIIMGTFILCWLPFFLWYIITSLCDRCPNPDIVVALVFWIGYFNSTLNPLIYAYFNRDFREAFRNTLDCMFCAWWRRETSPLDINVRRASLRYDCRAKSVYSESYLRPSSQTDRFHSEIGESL

AgOctβ2R (AgOctβ2) [2] = target: T3, AgOctβ2R (AgOctβ2) (Anopheles gambiae, UniProt F5HKI1, L290E)
T3 sequence (F5HKI1 1-526 L290E): T2 sequence (F5HKI1 1-526 N432C)

VdOctβ2 = target: T4, VdOctβ2 (Varroa destructor, UniProt A0A7M7KEY3)
T4 sequence (A0A7M7KEY3 1-439): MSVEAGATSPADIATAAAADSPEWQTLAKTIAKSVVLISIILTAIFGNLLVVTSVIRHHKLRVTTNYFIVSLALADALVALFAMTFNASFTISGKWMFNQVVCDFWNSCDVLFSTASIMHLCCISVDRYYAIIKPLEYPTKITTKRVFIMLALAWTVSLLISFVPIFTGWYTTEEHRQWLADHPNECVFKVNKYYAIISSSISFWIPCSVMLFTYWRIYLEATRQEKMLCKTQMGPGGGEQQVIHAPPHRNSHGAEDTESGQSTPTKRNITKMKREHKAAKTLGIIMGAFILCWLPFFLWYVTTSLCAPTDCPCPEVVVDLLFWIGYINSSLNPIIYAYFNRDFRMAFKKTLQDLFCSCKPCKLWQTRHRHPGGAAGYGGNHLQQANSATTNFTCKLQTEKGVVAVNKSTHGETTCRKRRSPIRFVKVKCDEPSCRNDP

AgOctβ2R (AgOctβ2) [3] = target: T5, AgOctβ2R (AgOctβ2) (Anopheles gambiae, UniProt F5HKI1)
T5 sequence (F5HKI1 1-526): T2 sequence (F5HKI1 1-526 N432C)

For `Cc1ccc(/N=C/N(C)/C=N/c2ccc(C)cc2C)c(C)c1` [amitraz], which EC50 (AmOctβ2) is on record?
Its EC50 is 12.1 nM.

And the EC50 (AgOctβ2R (AgOctβ2) [1])?
Its EC50 is 118 nM.

And the EC50 (AgOctβ2R (AgOctβ2) [2])?
Its EC50 is 85.4 nM.

What about the EC50 (VdOctβ2) of the same compound?
Its EC50 is 1.9 nM.

And the EC50 (AgOctβ2R (AgOctβ2) [3])?
Its EC50 is 10.8 nM.

`NCC(O)c1ccc(O)cc1` (stereo not drawn) [octopamine] was tested. Which EC50 (AmOctβ2) did it give?
The EC50 was 45.6 nM.

What about the EC50 (AgOctβ2R (AgOctβ2) [1]) of the same compound?
The EC50 was 57.3 nM.

And the EC50 (VdOctβ2)?
The EC50 was 47.1 nM.

And the EC50 (AgOctβ2R (AgOctβ2) [3])?
Its EC50 is 14.7 nM.

From paper doi:10.1101/2025.08.20.670845v1 (biorxiv, 2025)
